From patent US12233129B2, “Methods and compositions for the treatment of cancer” (priority 2019, dated 2025) come the findings set out here.

What all share (assay): Clonogenic survival assay
Common to all, as to format: cell-based, human

Experiment [1] relates to HCT-116 p53+/− or p53 −/−. Particulars: effective doses. The source says: (§1) We next performed a clonogenic survival assay (S4E) to determine colony formation in cancer cells in the presence and absence of VTD. […] At the same time, we measured the mot-2, p53, and UBXN2A protein levels in all these cell lines. […] To verify whether VTD-induced cell death is mediated through the UBXN2A-mot-2-p53 axis, we looked at the expression of p53 in the cytoplasm and nucleus of HCT-116 cells following VTD treatment. […] Due to a high cell death in higher doses of VTD, we could not use WB analysis for reliable p53 and UBXN2A detection and quantification. Finally, we checked the effect of VTD on non-cancerous cell lines. We incubated human umbilical vein endothelial cells (HUVECs), which mimic non-cancerous endothelial cells next to tumor cells, with VTD (S4G). […] Due to the different levels of the stress condition, we observed more sensitivity to VTD in LoVo and U2OS cells versus HCT-116 cells. In addition, lack of similar response in normal cells due to the absence of stresses and cytoplasmic mot-2 further explains VTD is therefore a drug that selectively targets cancer cell.
(§2) The viability of cells was calculated as % of control.
(§3) FIG. 17: Induction of apoptosis and in vitro cytotoxicity by VTD in a human cancer cell line with different statuses of p53 and mot-2. (A-D) Cells were treated with VTD for 24, 48, and 72 hours. After incubation, dead cells were washed off, and the remaining attached cells were calculated by counting in five random fields using the Axiovert 200 M inverted microscope and AxioVision software (cell detachment assay). The % of cells attached was calculated as % of control cells. […] The data is shown as mean+SEM of three independent experiments (n=3, *p<0.05). (E-K) Cells were plated for 5 days, and the colonies of cells were treated with different concentration of VTD. The colonies of viable cells were stained with crystal violet dye and absorbance, as an index of measurement of colony forming units, was read at 562 nm (clonogenic survival assay). VTD induced a significant decrease in cell viability in a p53- and differentiation grade manner in HCT-116 poorly differentiated cells (E), HCT 116 p53+/−(F), HCT-116 p53−/− (G), LoVo well-differentiated cells (H), SW-480 (K), and two non-colon cancer cells: HepG2 (I) and U2OS (J). The data is shown as mean+SEM of three independent experiments (n=3, *p<0.05). (L) Determination of endogenous levels of mot-2, UBXN2A, HSC70, and p53 proteins in various cancer cell lines using WB. (M) HCT-116 cells were treated with VTD (10 and 30 μM) and cytoplasmic and nuclear fractions were subjected to WB. HSC70 and Orc-2 antibodies were used as cytoplasmic and nuclear markers, respectively.

A further experiment concerns HCT-116. The following applies: in higher doses.
Description: as §1, §2, §3

In a further experiment the test system is HepG2. Particulars: as low as 30 μM VTD.
Description: as §1, §2, §3

In a further experiment the test system is LoVo. The following applies: as low as 30 μM VTD.
Description: as §1, §2, §3

A further experiment relates to SW480. Particulars: mutant p53, even at higher doses.
Description: as §1, §2, §3

The next experiment relates to U2OS. The following applies: as low as 30 μM VTD.
Description: as §1, §2, §3

Each structure is given as a SMILES string.

With `COc1ccc(C(=O)O[C@H]2CC[C@@]3(C)[C@@H]4CC[C@H]5[C@]6(O)C[C@H](O)[C@@]7(O)[C@@H](CN8C[C@@H](C)CC[C@H]8[C@@]7(C)O)[C@]6(O)C[C@@]53O[C@]24O)cc1OC` [VTD, Veratridine], in experiment [1], the “p53 dependence of anti-colony formation role” value was “partially p53 dependent”. Besides, in the experiment with HCT-116, the colony formation entry was “reduces colony formation”. Also, the number of colonies result is “significantly decreases the number of colonies” in the experiment with HepG2, “significantly decreases the number of colonies” with LoVo, “no response” with SW480 and “significantly decreases the number of colonies” in the experiment on U2OS.
